Where “and” joins values, the source holds several entries; their conditions need not be identical. Equal entries are not always repeated.
Key:
Format in all cases: in vivo, C57BL/6 mice
[1] = test system: LV, SP and LNs; assay: Whole organ transcriptome across organs (adjuvant gene space): gene responses and adjuvant grouping
[2] = test system: preferentially upregulated genes in LV, SP, LN; assay: Z-score-based differential gene expression analysis (adjuvant group- or adjuvant-associated genes, 40 module mapping, TargetMine annotation)
How it was run: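 Per-sample fold-change values converted to gene-wise z-scores within each organ's data set, then triplicate z-scores summed per adjuvant. Genes with summed score >3 taken as preferentially expressed; gene groups defined by combined per-adjuvant z-score thresholds (z>1 to z>3) specific to each organ.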

[3] = test system: inguinal lymph nodes (LN); assay: Whole organ transcriptome (GeneChip microarray) of draining inguinal lymph nodes 6 h after adjuvant administration: sDEGs, gene modules, hierarchical clustering; settings: lymph node; as to adjuvant group (cluster) in LN: key: G1 (interferon signaling); G2 (metabolism of lipids and lipoproteins); G3 (response to stress); G4 (response to wounding); G5 (phosphate-containing compound metabolic process); G6 (phagosome)
[4] = ID, LN, samples x1-x3, Module#(LN) 40
[5] = liver (LV), gene group G1, module 20, individual mice x1-x3, route ID/IP/IN

D35: A class CpG ODN (5′-GGTGCATCGATGCAGGGGGG-3′), TLR9 ligand (DNA GGTGCATCGATGCAGGGGGG; chemistry not given here)
distribution/strength of gene responses between local LNs and systemic organs (LV, SP) ([1]; 6 h after i.d. (local) administration): acted on local LNs but not in the systemic remote organs
adjuvant group (cluster) within the adjuvant gene space ([1]; hierarchical clustering, LV, SP and/or LNs): G5
z sum, 1444615_x_at Runx1t1 ([2]; ID, LN, Module#(LN) 1): 3.519
z sum, 1420894_at Tgfbr1 ([2]; ID, LN, Module#(LN) 3): 3.333
z sum, 1460069_at Smc6 ([2]; ID, LN, Module#(LN) 7): 3.274
z sum, 1440371_at --- ([2]; ID, LN, Module#(LN) 8): 3.29
z sum, 1456346_at --- ([2]; ID, LN, Module#(LN) 9): 3.455
z sum, 1425105_at Rbp3 ([2]; ID, LN, Module#(LN) 10): 3.333
z sum, 1455796_x_at Olfm1 ([2]; ID, LN, Module#(LN) 11): 3.262
z sum, 1443302_at --- ([2]; ID, LN, Module#(LN) 12): 3.407
z sum, 1442518_at C030044O21Rik ([2]; ID, LN, Module#(LN) 14): 3.546
z sum, 1419486_at Foxc1 ([2]; ID, LN, Module#(LN) 19): 3.344
z sum, 1441344_at Erlin1 ([2]; ID, LN, Module#(LN) 21): 3.171
z sum, 1423611_at Alpl ([2]; ID, LN, Module#(LN) 24): 3.194
z sum, 1448179_at Usmg5 ([2]; ID, LN, Module#(LN) 24): 3.461
z sum, 1458457_at --- ([2]; ID, LN, Module#(LN) 26): 3.147
z sum, 1450377_at Thbs1 ([2]; ID, LN, Module#(LN) 28): 3.002
z sum, 1443853_x_at Sfmbt1 ([2]; ID, LN, Module#(LN) 32): 3.51
z sum, 1443392_at Trpv1 ([2]; ID, LN, Module#(LN) 33): 3.184
z sum, 1440475_at AW011738 ([2]; ID, LN, Module#(LN) 36): 3.038
z sum, 1416380_at Mov10 ([2]; ID, LN, Module#(LN) 37): 3.277
z sum, 1421008_at Rsad2 ([2]; ID, LN, Module#(LN) 37): 3.221
z sum, 1421009_at Rsad2 ([2]; ID, LN, Module#(LN) 37): 3.209
z sum, 1424339_at Oasl1 ([2]; ID, LN, Module#(LN) 37): 3.198
z sum, 1426013_s_at Plekha4 ([2]; ID, LN, Module#(LN) 37): 3.228
z sum, 1436058_at Rsad2 ([2]; ID, LN, Module#(LN) 37): 3.281
z sum, 1436472_at Slfn9 ([2]; ID, LN, Module#(LN) 37): 3.595
z sum, 1447241_at --- ([2]; ID, LN, Module#(LN) 37): 3.033
z sum, 1416039_x_at Cyr61 ([2]; ID, LN, Module#(LN) 39): 3.015
z sum, 1418191_at Usp18 ([2]; ID, LN, Module#(LN) 40): 3.035
z sum, 1418293_at Ifit2 ([2]; ID, LN, Module#(LN) 40): 3.02
z sum, 1418580_at Rtp4 ([2]; ID, LN, Module#(LN) 40): 3.028
z sum, 1419603_at Ifi204 ([2]; ID, LN, Module#(LN) 40): 3.659
z sum, 1421911_at Stat2 ([2]; ID, LN, Module#(LN) 40): 3.137
z sum, 1422006_at Eif2ak2 ([2]; ID, LN, Module#(LN) 40): 3.279
z sum, 1422141_s_at Csprs///Gm15433///Gm2666///Gm7609///LOC100041903///LOC100503923 ([2]; ID, LN, Module#(LN) 40): 3.074
z sum, 1423555_a_at Ifi44 ([2]; ID, LN, Module#(LN) 40): 3.551
z sum, 1424444_a_at 1600014C10Rik ([2]; ID, LN, Module#(LN) 40): 3.108
z sum, 1424607_a_at Gm4354 ([2]; ID, LN, Module#(LN) 40): 3.422
z sum, 1424609_a_at Cwc22///Gm4354///Xdh ([2]; ID, LN, Module#(LN) 40): 3.429
z sum, 1431095_a_at Herc6 ([2]; ID, LN, Module#(LN) 40): 3.065
z sum, 1432417_a_at Tspan2 ([2]; ID, LN, Module#(LN) 40): 3.906
z sum, 1439886_at --- ([2]; ID, LN, Module#(LN) 40): 3.151
z sum, 1450403_at Stat2 ([2]; ID, LN, Module#(LN) 40): 3.389
z sum, 1451777_at Ddx60 ([2]; ID, LN, Module#(LN) 40): 3.02
z sum, 1452349_x_at Ifi205///Mnda ([2]; ID, LN, Module#(LN) 40): 3.123
z sum, 1453196_a_at Oasl2 ([2]; ID, LN, Module#(LN) 40): 3.123
z sum, 1453299_a_at Pnp///Pnp2 ([2]; ID, LN, Module#(LN) 40): 3.12
z sum, 1453757_at Herc6 ([2]; ID, LN, Module#(LN) 40): 3.183
z sum, 1456164_at AW011738 ([2]; ID, LN, Module#(LN) 40): 3.347
z sum, 1457035_at Al607873 ([2]; ID, LN, Module#(LN) 40): 3.377
z-score of fold change, 1460069_at Smc6 ([2]; ID, LN, samples x1-x3, Module#(LN) 7): 0.716 and 1.173 and 1.385
z-score of fold change, 1442518_at C030044O21Rik ([2]; ID, LN, samples x1-x3, Module#(LN) 14): 0.953 and 1.161 and 1.432
z-score of fold change, 1423611_at Alpl ([2]; ID, LN, samples x1-x3, Module#(LN) 24): 0.707 and 1.244
z-score of fold change, 1436472_at Slfn9 ([2]; ID, LN, samples x1-x3, Module#(LN) 37): 1.143 and 1.047 and 1.405
z-score of fold change, 1419603_at Ifi204 [2, 4]: 1.185 and 1.269 and 1.205
z-score of fold change, 1422006_at Eif2ak2 [2, 4]: 1.174 and 1.037 and 1.068
z-score of fold change, 1424607_a_at Gm4354 [2, 4]: 1.005 and 1.314 and 1.103
z-score of fold change, 1424609_a_at Cwc22///Gm4354///Xdh [2, 4]: 1.178 and 1.294 and 0.958
z-score of fold change, 1432417_a_at Tspan2 [2, 4]: 1.133 and 1.404 and 1.369
z-score of fold change, 1451777_at Ddx60 [2, 4]: 0.83 and 1.215 and 0.975
z-score of fold change, 1457035_at Al607873 [2, 4]: 0.908 and 1.231 and 1.239
interferon induction relative to adjuvants targeting the same receptor ([2]; LN, z-scores and 40 module mapping): relatively stronger interferon inducer than K3 or K3SPG
Z score of gene expression, Adar (probe 1425405_a_at) [2, 5]: −0.1 and −0.3 (2×)
Z score of gene expression, Adar (probe 1434268_at) [2, 5]: −0.3 (2×) and −0.4
Z score of gene expression, Ddx58 (probe 1436562_at) [2, 5]: −0.4 (2×) and −0.1
Z score of gene expression, Ddx58 (probe 1456890_at) [2, 5]: −0.3 (2×) and −0.4
Z score of gene expression, Eif2ak2 (probe 1422005_at) [2, 5]: −0.5 and −0.4 (2×)
Z score of gene expression, G3bp2 (probe 1421323_a_at) [2, 5]: −0.5 and −0.4 (2×)
Z score of gene expression, Gm9706///Isg15 (probe 1431591_s_at) [2, 5]: −0.5
Z score of gene expression, H2-T10///H2-T22///H2-T9 (probe 1449875_s_at) [2, 5]: −0.4 and −0.3 and −0.2
Z score of gene expression, Ifih1 (probe 1426276_at) [2, 5]: −0.5 (2×) and −0.3
Z score of gene expression, Ifit1 (probe 1449025_at) [2, 5]: −0.5
Z score of gene expression, Ifit1 (probe 1450783_at) [2, 5]: −0.5 and −0.4 (2×)
Z score of gene expression, Irf7 (probe 1417244_a_at) [2, 5]: −0.3 (2×) and −0.2
Z score of gene expression, Irgm1 (probe 1418825_at) [2, 5]: −0.5 (2×) and −0.3
Z score of gene expression, Mndal (probe 1426906_at) [2, 5]: −0.5 and −0.4 and −0.3
Z score of gene expression, Pml (probe 1448757_at) [2, 5]: −0.7 and −0.4 and −0.3
Z score of gene expression, Pml (probe 1456103_at) [2, 5]: −0.4 and −0.3 (2×)
Z score of gene expression, Rnf213 (probe 1455500_at) [2, 5]: −0.4
Z score of gene expression, Rsad2 (probe 1436058_at) [2, 5]: −0.5
Z score of gene expression, Shisa5 (probe 1423986_a_at) [2, 5]: −0.5 and −0.6 and −0
Z score of gene expression, Shisa5 (probe 1437503_a_at) [2, 5]: −0.4 (2×) and 0.15
Z score of gene expression, Stat1 (probe 1450033_a_at) [2, 5]: −0.5 (2×) and −0.4
Z score of gene expression, Stat1 (probe 1450034_at) [2, 5]: −0.5
Z score of gene expression, Tdrd7 (probe 1426716_at) [2, 5]: −0.4 (2×) and −0.1
Z score of gene expression, Tor1aip2 (probe 1418115_s_at) [2, 5]: −0.4 and −0.6 and −0.1
Z score of gene expression, Tor1aip2 (probe 1418116_at) [2, 5]: −0.4 and −0.5 and −0.2
Z score of gene expression, Tor1aip2 (probe 1435526_at) [2, 5]: −0.4 (2×) and −0.5
Z score of gene expression, Trim12a (probe 1437432_a_at) [2, 5]: −0.4 (2×) and −0.5
Z score of gene expression, Uba7 (probe 1426970_a_at) [2, 5]: −0.8 and −0.6 and −0.5
adjuvant group (cluster) in LN ([3]; hierarchical clustering): G5
Number of gene probes with statistically significant changes (sDEGs), LN, Down ([3]; i.d. administration, fold change <0.667, p<0.01, customized PA call=1, 6 h after adjuvant): 12
Number of gene probes with statistically significant changes (sDEGs), LN, Up ([3]; i.d. administration, fold change >1.5, p<0.01, customized PA call=1, 6 h after adjuvant): 69
